Calls of active or inactive are those of the source. No cut-off for these calls is given here.
Key:
[1] = system: SK-HEP1; assay: Antiproliferative activity against human SK-HEP1 cells cultured as 2D cells assessed as inhibition of cell growth at 10 uM incubated for 72 hrs by CCK-8 assay; assay type: functional, cell-based
[2] = system: HCCLM3; assay: Antiproliferative activity against human HCCLM3 cells cultured as 2D cells assessed as inhibition of cell growth at 10 uM incubated for 72 hrs by CCK-8 assay; assay type: functional, cell-based
[3] = system: HCCLM3; assay: Antiproliferative activity against human HCCLM3 cells cultured as 3D cells assessed as inhibition of colony formation at 25 uM incubated for 21 days by 3D soft-agar based microscopic analysis; assay type: functional, cell-based; settings: time 21.0 day
[4] = system: HCCLM3; assay: Antitumor activity against human HCCLM3 cells xenografted in BALB/c mouse assessed as inhibition of tumor growth at 50 mg/kg,ip administration measured after 22 days; assay type: functional, organism-based; settings: time 22.0 day
[5] = Toxicity in BALB/c mouse xenografted with human HCCLM3 cells assessed as body weight loss at 50 mg/kg,ip administration measured after 22 days; assay type: organism-based; settings: in vivo, 528 h, time 22 day
[6] = Toxicity in BALB/c mouse xenografted with human HCCLM3 cells assessed as change in mental state at 50 mg/kg,ip administration measured after 22 days; assay type: organism-based; settings: in vivo, 528 h, time 22 day
[7] = Toxicity in BALB/c mouse xenografted with human HCCLM3 cells assessed as pathological change in heart at 50 mg/kg,ip administration measured after 22 days by hematoxylin and eosin staining based microscopic analysis; assay type: organism-based; settings: in vivo, 528 h, time 22 day
[8] = Toxicity in BALB/c mouse xenografted with human HCCLM3 cells assessed as pathological change in liver at 50 mg/kg,ip administration measured after 22 days by hematoxylin and eosin staining based microscopic analysis; assay type: organism-based; settings: in vivo, 528 h, time 22 day
[9] = Toxicity in BALB/c mouse xenografted with human HCCLM3 cells assessed as pathological change in spleen at 50 mg/kg,ip administration measured after 22 days by hematoxylin and eosin staining based microscopic analysis; assay type: organism-based; settings: in vivo, 528 h, time 22 day
[10] = Toxicity in BALB/c mouse xenografted with human HCCLM3 cells assessed as pathological change in lung at 50 mg/kg,ip administration measured after 22 days by hematoxylin and eosin staining based microscopic analysis; assay type: organism-based; settings: in vivo, 528 h, time 22 day
[11] = Toxicity in BALB/c mouse xenografted with human HCCLM3 cells assessed as pathological change in kidney at 50 mg/kg,ip administration measured after 22 days by hematoxylin and eosin staining based microscopic analysis; assay type: organism-based; settings: in vivo, 528 h, time 22 day
[12] = Half life in Wistar rat at 100 mg/kg,po administration measured upto 96 hrs by HPLC-UV analysis; settings: in vivo
[13] = system: HCCLM3; assay: Antiproliferative activity against human HCCLM3 cells cultured as 2D cells assessed as inhibition of cell growth at 10 to 50 uM incubated for 72 hrs by CCK-8 assay; assay type: functional, cell-based; settings: dose 10-50 µM
[14] = system: SK-HEP1; assay: Antiproliferative activity against human SK-HEP1 cells cultured as 2D cells assessed as inhibition of cell growth at 10 to 50 uM incubated for 72 hrs by CCK-8 assay; assay type: functional, cell-based; settings: dose 10-50 µM
[15] = system: SK-HEP1; assay: Inhibition of cell migration in human SK-HEP1 cells at 10 to 50 uM incubated for 24 hrs by transwell assay; assay type: functional, cell-based; settings: dose 10-50 µM
[16] = system: HCCLM3; assay: Inhibition of cell migration in human HCCLM3 cells at 10 to 50 uM incubated for 24 hrs by transwell assay; assay type: functional, cell-based; settings: dose 10-50 µM

With `Cc1cc(-c2nc(C)c(C(=O)O)s2)ccc1OCC1CC1` as the molecule, how does the Activity [1] read?
Its Activity is “inactive”.

And the Activity [2]?
Its Activity is “inactive”.

What does the source list for `CNC(=O)c1cc(Oc2ccc(NC(=O)Nc3ccc(Cl)c(C(F)(F)F)c3)cc2)ccn1` [SORAFENIB]?
Activity [3]: Active; Activity [4]: Active; Activity [5]: Toxic; Activity [6]: Toxic; Activity [7]: Non-toxic; Activity [8]: Non-toxic; Activity [9]: Non-toxic; Activity [10]: Non-toxic; Activity [11]: Non-toxic; half-life at 96 h [12]: 21.9 h

For `Cc1nc(-c2ccc(OCC(C)C)c(C#N)c2)sc1C(=O)O`, which Activity [13] is on record?
Its Activity is “Active”.

And the Activity [14]?
The Activity was “Active”.

And the inhibition [15]?
Its inhibition is “Active”.

And the inhibition [16]?
Its inhibition is “Active”.

What does the source list for `CCOc1nc(-c2ccc(OCC3CC3)cc2)sc1C(=O)O`?
Activity [1]: inactive; Activity [2]: inactive

— ChEMBL document CHEMBL6087465, “Design, Synthesis, and Antitumor Activity Evaluation of 2-Phenylthiazole-5-Carboxylic Acid Derivatives Targeting Transactivation Response RNA-Binding Protein 2” (J Med Chem, 2025)
